Measured values taken from patent US10434197B2, “Tetrazine-trans-cyclooctene ligation for the rapid construction of radionuclide labeled probes” (University of Delaware, priority 2010, dated 2019).
Read-outs that look alike come from different tables or passages of the source. Blank lines part the entries; values can stand above or below the molecule they belong to.

How the values were obtained:
[1] = in vivo; parameters: species or system mice; conditions: mouse, iv, 3.7 MBq, total radioactivity
Method: (§1) Animal procedures were performed according to a protocol approved by the University of Southern California Institutional Animal Care and Use Committee. For static microPET scans, mice bearing U87MG xenografts were injected with 3.7 MBq (100 μCi) of ^18F-41 via the tail vein (n=3 for each group). At 0.5, 1, and 2 h post injection (p.i.), the mice were anesthetized with isoflurane (5% for induction and 2% for maintenance in 100% O2) using a knock-down box. With the help of a laser beam attached to the scanner, the mice were placed in the prone position and near the center of the field of view of the scanner. The 3-min static scans were then obtained. Images were reconstructed using a 2-dimensional ordered-subsets expectation maximization (OSEM) algorithm. No background correction was performed. Regions of interest (ROIs; 5 pixels for coronal and transaxial slices) were drawn over the tumor on decay-corrected whole-body coronal images. The maximum counts per pixel per minute were obtained from the ROI and converted to counts per milliliter per minute using a calibration constant. With the assumption of a tissue density of 1 g/mL, the ROIs were converted to counts per gram per min. Image ROI-derived % ID/g values were determined by dividing counts per gram per minute with injected dose. No attenuation correction was performed. Similarly, ^18F-43 was injected into healthy nude mice for microPET study.
(§2) Representative coronal microPET images of U87MG tumor-bearing mice (n=3/group) were obtained at different times after intravenous injection of about 3.7 MBq (100 μCi) of ^18F-41. The tumors after injection of the radiotracers were all clearly visible with good contrast to contralateral background at all time points measured. […] Quantification of tumor and major organ activity accumulation in the microPET scans was achieved by measuring regions of interest (ROIs) encompassing the entire organ on the coronal images. Tumor and major organ uptake of ^18F-41 is depicted in FIG. 3A. The tumor uptake of ^18F-41 in U87MG tumor was 1.98±0.33, 1.80±0.15, and 1.27±0.33% ID/g at 0.5, 1, and 2 h p.i., respectively. The uptake of the ^18F-41 decreased rapidly with time in the muscle, affording better image contrast at later time points after injection (2 h).

[2] = test system: U87MG tumor; assay: in vivo; parameters: species or system mice; conditions: mouse
Method: as §1, §2

[3] = Stability and isomerization of Diels-Alder conjugate 10 in water, CD3CN/H2O, PBS; format: physicochemical; conditions: for rearrangement to ^19F-11, conversion: CD3CN/H2O
[4] = Stability of 16 in human serum; format: in vitro ADME; conditions: 24 hours
[5] = Rate of Diels-Alder reaction with 3,6-di(2-pyridyl)-s-tetrazine (1a); format: physicochemical
From the text: The inventors have previously described tetrazine-trans-cyclooctene ligation (‘ITCO ligation’) as a method of bioconjugation that proceeds with fast reaction rates without need for catalysis (M. L. Blackman, M. Royzen and J. M. Fox, J. Am. Chem. Soc. 2008, 130, 13518-13519) trans-Cyclooctene derivatives are readily prepared from cis-cyclooctenes using a photochemical flow-reaction that the inventors developed (M. Royzen, G. P. A. Yap and J. M. Fox, J. Am. Chem. Soc. 2008, 130, 3760-3761). […] Thus, the reaction between trans-cyclooctene and 1a proceeds with a rapid rate (k2˜2000 M^−1 s^−1 in 9:1 MeOH:water), and is successful in cell media and cell lysate.
The inventors also used a photochemical flow reactor (M. Royzen, G. Yap, and J. Fox, J. Am. Chem. Soc. 2008, 130 (12), 3760) to synthesize 16, an analog of 7 with a functionalizable group. The rate of the reaction of compound 16 with 3,6-di(2-pyridyl)-s-tetrazine (1a) in methanol was k2=22000 M^−1s^−1, […] than the reaction of 1a with trans-cyclooctene in the same solvent. […] Compound 16 can be readily converted into carbamate derivatives, and compound 16 can be selectively conjugated to the protein thioredoxin using the conjugation of maleimide 26 (vide infra) to a cysteine residue, and that conjugate can in turn can take part in tetrazine ligation analogous to that shown below for compound 16.

[6] = Chemical stability of 16 (water, amine, thiol); format: physicochemical; conditions: 24 hours
[7] = 9:1 MeOH:water; cited from earlier work

Compound: N=C(N)NCCC[C@@H]1NC(=O)[C@H](CSC2CC(=O)N(CCNC(=O)CCCC(=O)Nc3ccc(C4=NN=C(c5ccccn5)C5CCCCC(OCCF)CC45)nc3)C2=O)NC(=O)[C@@H](Cc2ccc(O)cc2)NC(=O)[C@H](CC(=O)O)NC(=O)CNC1=O (stereo partly drawn) [^18F-41]
tissue uptake at 0.5 h [1]: 1.98 ± 0.33 %ID/g
tissue uptake at 1 h [1]: 1.8 ± 0.15 %ID/g
tissue uptake at 2 h [1]: 1.27 ± 0.33 %ID/g
excretion route [2]: mainly excreted through the renal system

stability in water [3]: stable
rearrangement to ^19F-11, conversion ([3]; after 4 hours): 11%
rearrangement to ^19F-11, conversion ([3]; after 48 hours): > 95%
Compound: FCCO[C@@H]1CCC[C@@H]2C(c3ccccn3)=NN=C(c3ccccn3)[C@H]2CC1 [compound 10, 7-(2-fluoroethoxy)-1,4-di(pyridin-2-yl)-4a,5,6,7,8,9,10,10a-octahydrocycloocta[d]pyridazine]

stability [4]: no degradation
stability ([6]; 5 mM ethanethiol in MeOH): no degradation
stability ([6]; 5 mM n-butylamine in MeOH): no degradation
stability ([6]; water): no degradation
Compound: OC[C@@H]1[C@H]2CC/C=C/CC[C@@H]12 [compound 16]
rate of reaction with 1a ([5]; aqueous solvent systems, UV-vis spectroscopy): too fast to measure
k2, reaction with 1a ([5]; methanol): 22000 M⁻¹ s⁻¹
rate relative to reaction of 1a with trans-cyclooctene ([5]; same solvent (methanol)): 18 times faster

Compound: C1=C/CCCCCC/1 [trans-cyclooctene]
k2, reaction with 1a [7]: ~2000 M⁻¹ s⁻¹
